Values joined by “and” are separate entries in the source; they are usually repeats but may differ in a detail not shown here. Equal values may be shown once.
Tests used:
[1] = xn = mol fraction of the nth substance listed

C=CCO
viscosity [mPa·s]
Conditions | 298.15 K | 303.15 K | 313.15 K | 318.15 K | 323.15 K
101 kPa | – | 1.122 | 0.9208 | 0.8419 | 0.7703
101.33 kPa | 1.232 | – | – | – | –

CC(=O)[O-].CC[n+]1ccn(C)c1
viscosity
Conditions | 293.15 K | 303.15 K | 308.15 K | 313.15 K | 318.15 K | 323.15 K
100 kPa | 203 mPa·s | 89.44 mPa·s | – | 53.45 mPa·s and 61.13 mPa·s | – | 34.58 mPa·s
101 kPa | 197 mPa·s | 93.62 mPa·s and 95.11 mPa·s and 102.4 mPa·s | 71.26 mPa·s | 57.72 mPa·s and 55.52 mPa·s and 60.42 mPa·s | 44.15 mPa·s | 35.74 mPa·s and 36.27 mPa·s and 38.97 mPa·s

CC(=O)[O-].C[NH+]1C=CN=C1
Conditions | viscosity [mPa·s]
298.15 K, 100 kPa | 6.22

CC(C)C#N
101 kPa
Conditions | viscosity
303.15 K | 0.461 mPa·s
308.15 K | 0.434 mPa·s and 0.433 mPa·s

CCCC(O)CC (stereo unspecified)
Conditions | viscosity
298.15 K, 101.33 kPa | 4.34 mPa·s and 4.34 mPa·s

CCCCCCCCCCC
viscosity
Conditions | 293.15 K | 298.15 K | 303.15 K | 308.15 K | 313.15 K | 318.15 K | 323.15 K
100 kPa | 1.187 mPa·s and 1.155 mPa·s | 1.074 mPa·s | 1.009 mPa·s and 0.993 mPa·s and 0.983 mPa·s | 0.935 mPa·s and 0.923 mPa·s and 0.912 mPa·s | 0.869 mPa·s and 0.861 mPa·s and 0.849 mPa·s | 0.812 mPa·s and 0.806 mPa·s and 0.792 mPa·s | 0.761 mPa·s and 0.756 mPa·s and 0.742 mPa·s
101 kPa | – | 1.075 mPa·s | – | 0.9373 mPa·s | – | 0.7937 mPa·s | –
101.33 kPa | – | 1.084 mPa·s and 1.084 mPa·s | – | – | – | – | –

CCOC(=O)CCC(=O)OCC
101.33 kPa
Conditions | viscosity [mPa·s]
298.15 K | 2.466
303.15 K | 2.196
308.15 K | 1.973
313.15 K | 1.779
318.15 K | 1.615

CCn1cc[n+](C)c1.[Cl][Al-]([Cl])([Cl])[Cl+][Al-]([Cl])([Cl])[Cl]
100 kPa
Conditions | viscosity [mPa·s]
293.15 K | 16.11
303.15 K | 12.41
313.15 K | 9.79
323.15 K | 7.943

CN1CCC[C@H]1c1cccnc1
viscosity
Conditions | 298.15 K | 303.15 K | 308.15 K | 318.05 K | 323.15 K
100 kPa | – | 3.6 mPa·s | – | 2.5 mPa·s | 2.195 mPa·s
101 kPa | 3.894 mPa·s (2×) and 3.894 mPa·s (2×) and 3.894 mPa·s | – | 3.156 mPa·s and 3.156 mPa·s | – | –
101.33 kPa | 3.894 mPa·s (2×) and 3.891 mPa·s | – | 3.156 mPa·s | – | 2.038 mPa·s

COCC(C)OCC(C)O (stereo unspecified)
101.33 kPa
Conditions | viscosity [mPa·s]
298.15 K | 3.691
308.15 K | 2.765
318.15 K | 2.147

N#C[C-](C#N)C#N.OCC[n+]1ccccc1
101 kPa
Conditions | viscosity [mPa·s]
293.15 K | 136.6
298.15 K | 97.48
303.15 K | 71.78
308.15 K | 54.57
313.15 K | 42.31
318.15 K | 33.96
323.15 K | 27.78

NC=O
viscosity
Conditions | 293.15 K | 298.15 K | 303.15 K | 308 K | 308.15 K | 313 K | 313.15 K | 318.15 K | 323.15 K
100 kPa | 3.734 mPa·s | 3.34 mPa·s | 2.964 mPa·s and 2.874 mPa·s | – | 2.612 mPa·s | – | 2.351 mPa·s | – | –
101 kPa | 3.656 mPa·s and 3.792 mPa·s | – | – | 2.648 mPa·s | – | 2.273 mPa·s | – | – | 2.01 mPa·s and 1.905 mPa·s and 1.966 mPa·s
101.3 kPa | – | 3.393 mPa·s | 2.8 mPa·s | – | 2.5 mPa·s | – | 2.2 mPa·s | – | 1.6 mPa·s
101.33 kPa | – | 3.217 mPa·s | 2.802 mPa·s and 2.84 mPa·s | – | 2.498 mPa·s and 2.59 mPa·s | – | 2.243 mPa·s | 2.032 mPa·s | 1.846 mPa·s

OCCCO
viscosity
Conditions | 293.15 K | 298.15 K | 303.15 K | 308.15 K | 313.15 K | 318.15 K | 323.15 K
100 kPa | 54.53 mPa·s (2×) and 53.1 mPa·s and 52.75 mPa·s | 42.89 mPa·s (2×) and 41.2 mPa·s | 34.62 mPa·s (2×) and 33.4 mPa·s and 32.51 mPa·s | 27.06 mPa·s | 21.85 mPa·s | 19.93 mPa·s | –
101 kPa | – | 42.1 mPa·s and 42.06 mPa·s | 33.7 mPa·s | – | 22.1 mPa·s and 20.29 mPa·s | 18.8 mPa·s and 16.88 mPa·s | 14.16 mPa·s
101.3 kPa | – | 41.77 mPa·s | 33.35 mPa·s | – | 22.39 mPa·s | 18.61 mPa·s | 15.66 mPa·s

OCCCl
viscosity
Conditions | 293.15 K | 298.15 K | 303.15 K | 308.15 K | 313.15 K
100 kPa | – | – | – | 2.234 mPa·s | 1.882 mPa·s
101.3 kPa | – | 2.973 mPa·s | 2.611 mPa·s | – | –
101.33 kPa | 3.588 mPa·s | 2.81 mPa·s and 2.985 mPa·s | 2.624 mPa·s and 2.448 mPa·s | 2.15 mPa·s | –

CN1CCC[C@H]1c1cccnc1 + OCCCO
[1], 100 kPa
Conditions | viscosity [mPa·s]
293.15 K, x1 = 0.5 | 33.15
293.15 K, x1 = 0.6004 | 22.75
293.15 K, x1 = 0.8 | 9.805
298.15 K, x1 = 0.8 | 8.105
303.15 K, x1 = 0.6004 | 13.95
308.15 K, x1 = 0.7 | 7.885
313.15 K, x1 = 0.9 | 3.625
323.15 K, x1 = 0.3 | 13.05

OCCCO + OCCO
viscosity [mPa·s], [1], 101 kPa
Conditions | x2 = 0.111 | x2 = 0.2019 | x2 = 0.359 | x2 = 0.4612 | x2 = 0.5502 | x2 = 0.6262 | x2 = 0.7342 | x2 = 0.8289 | x2 = 0.9111
298.15 K | 39.52 | 37.55 | 34.13 | 31.81 | – | – | 24.96 | 22.36 | 19.9
303.15 K | 31.57 | 29.96 | 27.17 | 25.33 | 23.65 | 22.16 | 19.81 | 17.71 | 15.79
308.15 K | 25.57 | 24.22 | 21.94 | 20.45 | 19.09 | 17.92 | 16.08 | 14.42 | 12.89

OCCCl + OCCO
[1], 293.15 K, 101.33 kPa
Conditions | viscosity [mPa·s]
x2 = 0.1328 | 4.422
x2 = 0.2605 | 5.484
x2 = 0.3003 | 5.879
x2 = 0.3636 | 6.593
x2 = 0.4644 | 7.922
x2 = 0.5437 | 9.223
x2 = 0.6211 | 10.66
x2 = 0.6983 | 12.26
x2 = 0.7424 | 13.29
x2 = 0.8141 | 15.21
x2 = 0.8422 | 15.98
x2 = 0.9168 | 18.26

CN1CCC[C@H]1c1cccnc1 + Oc1ccccc1
viscosity [mPa·s], [1], 101 kPa
Conditions | 308.15 K | 323.15 K
x1 = 0.1004 | 16.28 | 7.224
x1 = 0.206 | 28.72 | 11.46
x1 = 0.2109 | 30.07 | 12.15
x1 = 0.2205 | 29.73 | 11.9
x1 = 0.253 | 29.83 | 12.06
x1 = 0.255 | 29.69 | 12.05
x1 = 0.2629 | 29.4 | 12
x1 = 0.2865 | 28.64 | 11.74
x1 = 0.3078 | 27.55 | 11.63
x1 = 0.4035 | 21.01 | 10.08
x1 = 0.4981 | 16.16 | 8.092
x1 = 0.6636 | 7.423 | 4.797
x1 = 0.7961 | 5.162 | 3.41
x1 = 0.861 | 4.501 | 3.032

CC(C)C#N + c1ccccc1
viscosity [mPa·s], [1], 101 kPa
Conditions | x2 = 0.1007 | x2 = 0.2057 | x2 = 0.307 | x2 = 0.3954 | x2 = 0.4991 | x2 = 0.5899 | x2 = 0.6925 | x2 = 0.7959 | x2 = 0.8965
303.15 K | 0.459 | 0.458 | 0.46 | 0.465 | 0.472 | 0.483 | 0.497 | 0.516 | 0.539
308.15 K | 0.43 | 0.432 | 0.432 | 0.434 | 0.442 | 0.451 | 0.462 | 0.481 | 0.498

OCCCl + c1ccccc1
[1], 303.15 K, 101.33 kPa
Conditions | viscosity [mPa·s]
x2 = 0.3365 | 1.315
x2 = 0.4832 | 1.008
x2 = 0.6611 | 0.771
x2 = 0.849 | 0.613

NC=O + c1ccncc1
[1], 298.15 K, 101 kPa
Conditions | viscosity [mPa·s]
x1 = 0.129 | 1.064
x1 = 0.1798 | 1.16
x1 = 0.2662 | 1.365

OCCCO + c1ccncc1
Conditions | viscosity [mPa·s]
[1], 313.15 K, 101 kPa, x2 = 0.3 | 8.615

N#C[C-](C#N)C#N.OCC[n+]1ccccc1 + c1ccsc1
Conditions | viscosity [mPa·s]
[1], 313.15 K, 101 kPa, x1 = 0.4042 | 9.96
